Source: publication PMC4788259 (PLoS Neglected Tropical Diseases, 2016)

system: E. multilocularis metacestodes; test: PGI assay: phosphoglucose isomerase release from damaged metacestodes; type: cell-based, Echinococcus multilocularis; settings: 10 μM, 5 days, single wells, relative to DB1127 (10 μM)
Method: The preparation of E. multilocularis metacestode material (strain H95) from intraperitoneally (i.p.) infected BALB/c mice was performed as described earlier. Metacestode vesicles were used for in vitro drug screening when they reached 2 to 4 mm in diameter.
For screening of the Malaria Box against E. multilocularis metacestodes, the PGI screening assay was applied that measures the release of the enzyme phosphoglucose isomerase (PGI) upon physical impairment of metacestodes. The screening setup was done in 24 well plates as described by Stadelmann et al. For initial screening, each drug was applied at 10 μM to metacestodes in single wells. As a positive control-drug, the dicationic diguanidino compound DB1127 (10 μM) was used and 0.1% DMSO was added as negative control. Metacestodes were cultured in the presence of the compounds for 5 days, after which PGI release was quantified exactly as stated in Stadelmann et al. […] Averages, standard deviations and EC50 values were calculated in Microsoft Excel 2010.

Row | SMILES | PGI (% of DB1127 at 10 uM)
1 | O=C(Nc1ccc(C23CC4CC(CC(c5ccccc5)(C4)C2)C3)cc1)c1cccs1 [MMV007574] | -11.28%
2 | CC(C)OCc1cc(CN2CCN(c3cccc(Cl)c3)CC2)c(O)c2ncccc12 [MMV000788] | -14.40%
3 | C=CC12CCN(CC1)C(C(O)c1ccnc3ccc(OC)cc13)C2.Cl (centres unmarked) [MMV665782] | -43.49%
4 | O=C(NC(c1ccccc1)c1ccc2cccnc2c1O)c1ccccc1 (centres unmarked) [MMV666080] | -67.16%
5 | CC(C)(C)CC(C)(C)NCC(O)COc1ccc2c(c1)CCC2.Cl (centres unmarked) [MMV665817] | -44.11%
6 | COc1ccc(C(O)(CCC(C)C)C(CN2CCOCC2)c2ccc(Cl)cc2)cc1.Cl (centres unmarked) [MMV000617] | -8.60%
7 | Cc1ccc(C2CC(C(F)(F)F)n3nc(C(=O)N4CCN(C(c5ccccc5)c5ccccc5)CC4)cc3N2)cc1 (centres unmarked) [MMV000699] | -1.50%
8 | CCN(Cc1ccccc1)C1CCN(Cc2cc(Br)ccc2O)CC1.O=C(O)C(=O)O [MMV019127] | -5.90%
9 | CCCCCCn1c(=N)n(CC(O)COc2cccc(C)c2)c2ccccc21.Cl (centres unmarked) [MMV000445] | 130.28%
10 | O=C(Cc1ccccc1)NC(c1ccc(Cl)cc1)c1c(O)ccc2ccccc12 (centres unmarked) [MMV665972] | 15.67%
11 | CCOc1cc(Cl)c(C(C)NC(=O)c2cccc(OC)c2)cc1OCC (centres unmarked) [MMV665803] | -50.18%
12 | Cc1ccc(Cl)cc1N1CCN(CCCNC(=O)C2CCN(c3nc4ccccc4[nH]3)CC2)CC1 [MMV019746] | -24.98%
13 | O=C(Nc1ccc(F)c(Cl)c1)Nc1ccc(Cl)c(Cl)c1 [MMV665953] | 213.83%
14 | CCCCCCc1cc2cc(-c3nc4ccccc4[nH]3)c(=Nc3ccccc3C)oc2cc1O [MMV666597] | -1.88%
15 | CCCCNCC(O)(c1ccc(Cl)cc1)c1ccc(Cl)cc1 [MMV665929] | -0.59%
16 | C[n+]1c2ccccc2nc2ccc(NCCO)cc21 [MMV396693] | -18.69%
17 | c1ccc(-c2ccc(-c3nc4ccccc4[nH]3)cc2)cc1 [MMV665891] | -89.45%
18 | CC1(c2ccccc2)Nc2ccccc2-c2nc3ccccc3n21 (centres unmarked) [MMV396715] | -22.40%
19 | Cc1ccc2c(C)nc(Nc3nc(C)cc(-c4ccccc4)n3)nc2c1 [MMV007041] | -2.18%
20 | COc1ccc(C(=O)C(CCC(CNC(C)(C)C)C(=O)c2ccc(OC)cc2)CNC(C)(C)C)cc1 (centres unmarked) [MMV007591] | -0.71%
21 | Cc1ccc(-c2cc3c(SCC(=O)Nc4cc(C(F)(F)F)ccc4Cl)nccn3n2)cc1 [MMV396680] | -41.44%
22 | CC(C)(C)c1ccc(C(=O)Nc2nc3ccccc3s2)cc1 [MMV142383] | -17.15%
23 | CSC1=NC(=Nc2c(C)cccc2C)C2(CCC(C(C)(C)C)CC2)N1c1ccc(Cl)cc1 (centres unmarked) [MMV666596] | -70.72%

Row | SMILES | PGI (% of DB1127 at 10 uM)
24 | COc1ccc(CCN2C(=O)c3[nH]nc(-c4cc(Cl)c(C)cc4O)c3C2c2ccccc2F)cc1 (centres unmarked) [MMV396717] | -12.02%
25 | Oc1ccccc1CN1CCC2(CCCN(Cc3ccccc3F)C2)C1 (centres unmarked) [MMV666116] | -7.59%
26 | CCOC(=O)C1=CN(C)C=C(C(=O)OCC)C1c1cc(Br)c(OCC)c(OC)c1 [MMV006656] | 16.40%
27 | CCOC(=O)c1c(C)n(-c2ccccc2)c2ccc(OC(=O)c3cc(OC)c(OC)c(OC)c3)cc12 [MMV396664] | -2.70%
28 | O=C(Nc1ccc(-c2nc3cc(NC(=O)c4ccc(Cl)cc4)ccc3[nH]2)cc1)c1ccc(Cl)cc1 [MMV006962] | -9.85%
29 | O=C(O)C(=O)O.Oc1ccccc1CN1CCN(C(c2ccccc2)c2ccccc2)CC1 [MMV011795] | -19.79%
30 | CN(N=O)C1=C(NC2CCCCC2)C(=O)c2ccccc2C1=O [MMV667492] | -5.36%
31 | COc1cc(C(=O)ON=C(N)Cc2cccc3ccccc23)cc(OC)c1OC [MMV666687] | 1.57%
32 | CC(O)(c1ccc(Cl)cc1)C(CN1CCCCC1)c1ccccc1.Cl (centres unmarked) [MMV000620] | -136.22%
33 | O=C(Nc1ccccc1O)c1ccc(Oc2cccc(C(=O)Nc3ccccc3O)c2)cc1 [MMV665888] | -15.91%
34 | Oc1ccc(Br)cc1CN1CCN(Cc2ccc(Cl)cc2)CC1 [MMV665809] | -23.13%
35 | CCCCCCC(O)(c1ccc(F)cc1)C(CN1CCOCC1)c1ccccc1.Cl (centres unmarked) [MMV000621] | -30.63%
36 | COc1cccc(C=Cc2nc(=O)c3ccccc3o2)c1OC [MMV666693] | -16.84%
37 | CCOc1ccc(Nc2ccnc3cc(Cl)ccc23)cc1 [MMV007285] | -9.06%
38 | CCOc1ccc(Nc2c3ccccc3nc3ccccc23)cc1.Cl [MMV000304] | 38.31%
39 | COc1ccc(-c2cn3c(C(=O)Nc4ccccc4Cl)c(-c4ccccc4)c4c3n2CCCC4)cc1 [MMV020403] | 8.35%
40 | O=c1nc(C=Cc2ccc(Cl)cc2)oc2ccccc12 [MMV007977] | 41.38%
41 | CCOc1ccc(CN2CCN(CC(O)COc3ccc(OCC(O)CN4CCN(Cc5ccc(OCC)cc5)CC4)cc3)CC2)cc1 (centres unmarked) [MMV007092] | -3.58%
42 | Cc1sc2ncnc(Sc3nc4ccccc4[nH]3)c2c1C [MMV019266] | -32.46%
43 | COc1cc(-c2nc(-c3ccc(Sc4ccccc4)cc3)c(-c3ccccc3)[nH]2)cc(OC)c1O [MMV007273] | -7.16%
44 | Cc1ccc(-c2nc3ccccc3o2)cc1NCc1cc(Cc2ccccc2)ccc1O [MMV020912] | -2.94%
45 | Cl.Cn1c(=O)n(C)c2cc(CNCCNc3ccnc4cc(Cl)ccc34)ccc21 [MMV665875] | 7.55%
46 | COC(=O)c1ccc(Cl)c2c1C1C=CCC1C(c1cccc3ccccc13)N2 (centres unmarked) [MMV667489] | 2.16%

Row | SMILES | PGI (% of DB1127 at 10 uM)
47 | CCOC(=O)C1CCN(C(=O)CN2C(=O)c3ccccc3C2c2c[nH]c3ccccc23)CC1 (centres unmarked) [MMV011576] | -33.19%
48 | COc1ccc(C(=O)Nc2nonc2-c2ccc(OC)c(OC)c2)cc1Cl [MMV011567] | -5.45%
49 | CN1C=C(c2ccc3ccccc3n2)C(c2c[nH]c3ccccc23)c2ccccc21 (centres unmarked) [MMV008160] | -2.32%
50 | CCCCCn1c(=N)n(CC(O)COc2cccc(C)c2)c2ccccc21.Cl (centres unmarked) [MMV000444] | 66.85%
51 | COc1cccc(C2(C)Nc3ccccc3-c3nc4ccccc4n32)c1 (centres unmarked) [MMV396719] | 6.50%
52 | Cc1ccc(OCCCCCCNCCO)c(C)c1 [MMV666020] | 2.96%
53 | COc1ccc(CNC2CCN(c3ccc(NC(=O)c4cccc(Cl)c4)cc3)CC2)cc1OC [MMV666067] | -35.43%
54 | O=C1c2ccc3c4c(ccc(c24)C(=O)N1CCCCO)C(=O)N(CCCCO)C3=O [MMV009085] | -6.63%
55 | CN(C)CCCNc1c2ccccc2nc2ccccc12 [MMV000448] | -25.46%
56 | Cl.N=c1n(CCN2CCCCC2)c2ccccc2n1CC(O)c1cccc(Br)c1 (centres unmarked) [MMV665902] | -8.42%
57 | COc1ccc(-c2nonc2NC(=O)c2cccc(Cl)c2)cc1OC [MMV020660] | -20.61%
58 | O=C(Nc1ccc(N2CCN(Cc3ccccc3)CC2)cc1)c1cccs1.O=C(O)C(F)(F)F [MMV019670] | -9.43%
59 | CCOc1ccc2c(c1)CN(Cc1ccc(Cl)cc1)CO2 [MMV000443] | -40.44%
60 | COc1cc2c3cc1Oc1c(OC)c(OC)cc4c1C(Cc1ccc(O)c(c1)Oc1ccc(cc1)CC3N(C)CC2)N(C)CC4.Cl (centres unmarked) [MMV007474] | -10.35%
61 | CCN(CC)CCn1c(=N)n(CC(O)c2ccc(Cl)c(Cl)c2)c2ccccc21.Cl (centres unmarked) [MMV000248] | -18.11%
62 | COc1ccc(C(=O)Nc2ccc3nc(N4CCCCC4)cc(C)c3c2)cc1OC [MMV019758] | -36.67%
63 | CCCCC(O)(c1ccc(Cl)cc1)C(CN1CCOCC1)c1ccc(Cl)cc1.Cl (centres unmarked) [MMV000619] | -6.41%
64 | COc1cc(-c2nc(-c3ccccc3)c(-c3ccccc3)[nH]2)cc(OC)c1O [MMV020750] | 7.02%
65 | OC(CNC1CCCC1)Cn1c2ccccc2c2ccccc21 (centres unmarked) [MMV000848] | 6.03%
66 | COc1ccc2c(c1)OC(O)(C(F)(F)C(F)(F)F)CC2=O (centres unmarked) [MMV007839] | 50.23%
67 | CCN1CCN(Cc2ccc(NC(=O)c3cc4ccc5cccnc5c4[nH]3)cc2)CC1 [MMV020548] | -26.47%
68 | COc1ccc(C(=O)C2CC2c2ccc(Cl)cc2)cc1 (centres unmarked) [MMV665924] | -13.71%
